According to patent US20240114902A1, “COMPOSITIONS AND METHODS FOR DETERRING OVIPOSITION BY FRUIT FLIES” (The United States of America, as represented by The …, priority 2022, published 2024):

Legend:
non-SWD drosophilids = test: Field test 2: sentinel raspberries in guava orchard, non-SWD drosophilids; assay type: in vivo, D. immigrans, D. simulans, D. melanogaster; details: 20 mg CFA or equivalent dose/raspberry, 2 days
Protocol: Field test 2 The oviposition deterrence of the 2c key-component blend and its two individual components against SWD and non-SWD drosophilids was tested under field conditions. This experiment was conducted in a guava orchard (19° 36′33.6″N, 155° 04′ 12.6″W) located near Hilo, Hawaii. To monitor oviposition, four sentinel organic raspberries purchased from a local grocery were placed (receptacles stuffed with cotton) inside a deli cup (600 mL; Placon, Madison, Wisconsin, USA). Each cup had nine 1 cm diameter holes spaced 3 cm apart along the cup's circumference and 8.5 cm from the bottom, which allowed the drosophilids to enter the cup. The four raspberries in each cup were surface-treated with one of five treatments: 1) 2c blend at 20 mg CFA equivalent/200 μL hexane/raspberry, 2) C8:0 at 20 mg CFA equivalent/200 μL hexane/raspberry, 3) C10:0 at 20 mg CFA equivalent/200 μL hexane/raspberry, 4) CFA at 20 mg/200 μL hexane/raspberry, or 5) 200 μL of hexane control/raspberry. The deli-cup traps were hung in guava trees 1.5 m from the ground with at least 10 m spacing between adjacent traps. […] Raspberries were removed from the traps, placed in rearing cups (600 mL deli cup with organdy cap), held in environmental chamber (22.1±1.9° C., 71.7±3.1% RH, 16:8 L:D), and monitored over a 2-week period. All emerged adults were counted and identified as SWD or non-SWD drosophilids. […]

Zeugodacus cucurbitae = test: Z. cucurbitae two-choice oviposition bioassay on pumpkin juice-infused agar; assay type: in vivo; set-up: key to Behavioral activity (Z. cucurbitae oviposition group): Negative: “negative” (i.e., oviposition reduced); Neutral: “neutral” (i.e., no effect on oviposition); Positive: “positive” (i.e., oviposition increased); details: for Behavioral activity (Z. cucurbitae oviposition group): individual CFFA component; for Z. cucurbitae oviposition reduction vs control agar: individual compound, 20 mg dose
Protocol: Oviposition bioassays were conducted with mated female flies, using pumpkin juice-infused agar as an oviposition substrate. A small petri dish (60×15 mm) filled with 10 mL of 1% agar mixed in pumpkin juice was used as an oviposition substrate. The agar plates were surface-treated either with 200 μL of ethanol or 200 μL of CFFA in one of 4 doses tested (20, 2, 0.2, and 0.02 mg/200 μL of ethanol), placed into a fume hood for 10 minutes for solvent evaporation prior to use in bioassays, and positioned upside-down (i.e. treated side down) on top of the 30×30×30 cm (W×L×H) screened cage 17 cm apart from each other (i.e. one each of control and CFFA treated), allowing 20 female flies (14 to 18 day-old) to oviposit on pumpkin juice agar from the bottom through the cage screen for 24 hours. Each cage was provided with a ball of water-saturated cotton, sugar, and protein hydrolysate in separate 30 mL deli cups and two oviposition substrates-one treated with CFFA diluted in ethanol and the other treated with the ethanol control. After 24 hours, Z. cucurbitae eggs in the pumpkin agar were gently separated from the agar in water and the number of eggs were individually counted. The experiment was replicated five times per treatment. CFFA was not an effective oviposition deterrent for Z. cucurbitae which is contrary to our previous work on B. dorsalis (Roh et al., 2023a). […] CFFA components were categorized into three groups “negative” (i.e., oviposition reduced), “neutral” (i.e., no effect on oviposition), and “positive” (i.e., oviposition increased) based on bioassay outcome. Using these categories, further formulations were made to determine key bioactive CFFA components in terms of oviposition deterrence on Z. cucurbitae at the equivalent ratios and concentrations of each component found in CFFA (Zhu et al. 2018). The approach involved testing the bioactivity of the negative-component blend (4c blend) for oviposition deterrence at three different doses (2, 0.2, and 0.02 mg CFFA equivalent/agar), compared with ethanol control. Further, neutral compound is added to the negative blend i.e., ‘negative+neutral’ component blend (5c blend) to identify key compounds for oviposition deterrence. The experiment was replicated five times per treatment.

Drosophila suzukii (SWD) = test: SWD laboratory two-choice oviposition bioassay on raspberries; assay type: in vivo; set-up: key to Behavioral activity (SWD oviposition group): Negative: “SWD negative” compounds (i.e., SWD oviposition was reduced); Neutral: “SWD neutral” compounds (i.e., no effect on oviposition); details: for Behavioral activity (SWD oviposition group): individual CFA component; for Behavioral activity (SWD oviposition group) / effect on SWD oviposition vs control / eggs oviposited among all treated raspberries: two-choice; for reduced SWD oviposition / SWD oviposition deterrence / effect on SWD oviposition vs control / eggs oviposited among all treated raspberries: individual compound; for reduced SWD oviposition: 0.2 mg dose; for SWD oviposition deterrence: 2 mg dose; for effect on SWD oviposition vs control / eggs oviposited among all treated raspberries: 20 mg dose
Protocol: Laboratory choice test 1 Oviposition bioassays were conducted at USDA-ARS in Hilo, Hawaii using a laboratory two-choice cage experimental set-up with organic raspberries purchased from a local grocery as an oviposition substrate. For all laboratory assays listed below, the receptacles of the raspberries were stuffed with cotton to prevent flies from ovipositing on the interior of the fruit as described previously in Cha D H et al. (2021, supra). The two-choice oviposition bioassay was conducted over 24 hours in screened cages (30 cm W×30 cm L×30 cm H; BugDorm-2120 Insect tent; shop.bugdorm.com) with 30 female and 10 male SWD (7-8 days old) released per cage. Each cage was provided with cotton moistened with water in a 20 mL deli cup and two 30 mL deli cups; one with two raspberries treated with CFA diluted in hexane and the other with two raspberries treated with hexane only. Each raspberry was surface-treated either with 200 μL of hexane or 200 μL of CFA in one of three doses (20, 2, or 0.2 mg CFA/200 μL hexane), placed into a fume hood for 10 minutes or until used in the bioassay. The deli cups with the treated berries were positioned in the center of the floor of the screened cage, 17 cm apart from each other. Female flies were allowed to oviposit on the surface of raspberries for 24 hours. At the conclusion of the bioassay, each 30 mL deli cup containing two raspberries was moved into a 600 mL deli cup with a mesh cap, held for 8 days (22.1±1.9° C., 71.7±3.1% RH, 16:8 L:D), when the number of larvae and pupae were counted. The experiment was replicated four times per treatment. Laboratory choice test 2 A series of bioassays were conducted in Hilo, Hawaii to identify key bioactive deterrent components of CFA for SWD using the same two-choice bioassay described above. […] Due to solubility differences, ethanol was used as control and for dilution of C16:0 and C18:0, while hexane was used as control and for dilution of the other six compounds tested. Based on the outcome of these bioassays, the eight free fatty acid components of CFA were grouped into two groups; “SWD negative” compounds (i.e., SWD oviposition was reduced) and “SWD neutral” compounds (i.e., no effect on oviposition), and tested whether the blend of “SWD negative” compounds had the same oviposition deterrence as the CFA at their equivalent concentrations as in CFA (see Table 2). The oviposition deterrence of the blend of “SWD negative” compounds was first compared to hexane at three different doses (20, 2 and 0.2 mg CFA equivalent/raspberry) and subsequently compared to CFA at 2 mg equivalent dose.

Compound | effect on oviposition from resident (non-SWD) drosophilids (non-SWD drosophilids) | effect on Z. cucurbitae oviposition (Zeugodacus cucurbitae; 2 mg dose) | Behavioral activity (Z. cucurbitae oviposition group) (Zeugodacus cucurbitae) | Z. cucurbitae oviposition reduction vs control agar (Zeugodacus cucurbitae) | Behavioral activity (SWD oviposition group) (Drosophila suzukii (SWD)) | reduced SWD oviposition (Drosophila suzukii (SWD)) | SWD oviposition deterrence (Drosophila suzukii (SWD)) | effect on SWD oviposition vs control (Drosophila suzukii (SWD)) | eggs oviposited among all treated raspberries (Drosophila suzukii (SWD)) | effect on Z. cucurbitae oviposition (Zeugodacus cucurbitae; 0.02 mg dose) | effect on Z. cucurbitae oviposition (Zeugodacus cucurbitae; 0.2 mg dose)
CCCCCCCCCC(=O)O [C10:0, capric acid] | not effective | either lost oviposition deterrence or increased oviposition | Negative | 74% | Negative | not detected | maintained oviposition deterrence | almost completely inhibited oviposition | one | – | –
CCCCCCCC(=O)O [C8:0, caprylic acid] | not effective | maintained oviposition deterrence | Negative | 100% | Negative | not detected | maintained oviposition deterrence | almost completely inhibited oviposition | zero | not | maintained oviposition deterrence
